SMILES strings stand for the structures. Numbered stars: 1 amine (or outer) side, 2 acyl side, 3 side chain; on linkers, the order of the positions; unused ones are H or OH. Bridge positions count the residues as written; N and C are the ends. Square brackets hold non-standard residues; d marks the D form. Peptide text beside a SMILES is read from it. Trp(βS-Me,7-OMe) = COc1cccc2c([C@H](C)[C@H](N)C(=O)O)c[nH]c12; Trp(7-CN) = N#Cc1cccc2c(C[C@H](N)C(=O)O)c[nH]c12; Trp(7-Cl) = N[C@@H](Cc1c[nH]c2c(Cl)cccc12)C(=O)O; Phe(4-CONH2) = NC(=O)c1ccc(C[C@H](N)C(=O)O)cc1; Phe(4-COOH) = N[C@@H](Cc1ccc(C(=O)O)cc1)C(=O)O; 4Pal(3S-Me) = C[C@@H](c1ccncc1)[C@H](N)C(=O)O; Trp(7-aza) = N[C@@H](Cc1c[nH]c2ncccc12)C(=O)O; X1 = O=C([C@@H]1CC[C@H](N[*:1])C1)[*:2]; X68 = O=C([C@@H]1CSCCN1[*:1])[*:2]; Pip(4-aza) = O=C(O)[C@@H]1CNCCN1; 4Pal = N[C@@H](Cc1ccncc1)C(=O)O; NMeE = CN[C@@H](CCC(=O)O)C(=O)O; dHyp = O=C(O)[C@H]1C[C@H](O)CN1; X7 = CC[C@@H](C(=O)[*:1])[*:2]; Ahp(2) = CCCCC[C@H](N)C(=O)O; αMeS = C[C@](N)(CO)C(=O)O; Nle = CCCC[C@H](N)C(=O)O; dNMeA = CN[C@H](C)C(=O)O; Sar = CNCC(=O)O

The target of this assay is T1, human soluble TNFR1 (sTNFR1) (Homo sapiens, UniProt P19438).
T1 construct: made in house; host or cells: Sf21 (baculovirus)
T1 sequence (P19438 with tags, fused parts or gaps): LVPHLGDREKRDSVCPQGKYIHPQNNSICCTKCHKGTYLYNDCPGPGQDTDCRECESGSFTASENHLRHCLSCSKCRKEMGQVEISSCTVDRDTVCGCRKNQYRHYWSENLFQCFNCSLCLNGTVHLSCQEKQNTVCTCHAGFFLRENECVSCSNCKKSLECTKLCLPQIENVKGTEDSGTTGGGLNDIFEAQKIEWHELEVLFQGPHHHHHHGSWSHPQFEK
The assay is described as follows: Human sTNFR1-peptide displacement assay (LanthaScreen Eu TR-FRET binding assay). As to the method:
A. Procedure for Human sTNFR1-Peptide Displacement Assay
The affinity was determined using LanthaScreen Eu-based time-resolved fluorescence resonance energy transfer (TR-FRET)-based binding assay.
A TR-FRET assay measuring the displacement of biotinylated peptide SEQ ID NO. 1 from human soluble TNFR1 (sTNFR1) in a pre-formed complex by a macrocyclic peptide yields the affinity (Kd^app) of the cyclic peptide for sTNFR1. The reagents for the assay include: the C′-terminally 6His-tagged sTNFR1 (residues 1-211) protein purified from a Sf21 baculovirus expression system, the biotin-tagged B0372 peptide described in section “Preparation of Final Compounds”, part E, the LanthaScreen™ anti-His Tag Europium donor (Life Technologies Corporation (San Diego, CA), cat. #PV5597), and a streptavidin-conjugate Alexa Fluor™ 647 acceptor (Invitrogen (Waltham, MA), cat. #S32357). Time-resolved TR-FRET is achieved when sTNFR1 is bound to biotinylated peptide SEQ ID NO. 1 through coupling of the donor and acceptor FRET pair.
100 nM biotinylated peptide SEQ ID NO. […] 100 nM biotinylated peptide SEQ ID NO. 1 was chosen as it reflects the ˜Kd for this complex. After 30 min at ambient temperature, each test peptide (2 mM stock in DMSO) is titrated in a 20 point, ˜3-fold discrete dose-response using an acoustic-dispense liquid handler. Specifically, 80 nL of peptide/DMSO is transferred into a ProxiPlate-384 Plus 384-well assay plate (PerkinElmer, cat. #6008289). To this plate, 8 μL of the previously formed sTNFR 1-biotinylated peptide SEQ ID NO. 1 complex is added and allowed to reach binding equilibrium with the test peptide at ambient temperature for 90 min.
The TR-FRET signal is measured with the following EnVision® settings: excitation laser at 337 nm; emission1=615 nm, emission2=665 nm, LANCE/DELFIA dichroic mirror, delay time=[…]. The signal of each well is determined as the ratio of the emission at 665 nm to that at 615 nm. Percent displacement is determined by normalization to control wells containing DMSO (0%) or a saturating concentration of a displaceable peptide (100%). The %-effect as a function of peptide concentration is fit to a five-parameter logistic fit based on the Morrison equation to account for tight binding kinetics.
In general terms: TR-FRET usually uses a lanthanide donor and a delayed reading to cut background.
`CCCC[C@@H]1NC(=O)[C@H](CC)SC[C@@H](C(N)=O)NC(=O)[C@H]([C@@H](C)c2c[nH]c3c(OC)cccc23)NC(=O)CN(C)C(=O)[C@H](Cc2ccc(O)cc2)NC(=O)[C@H](Cc2ccc(C(N)=O)cc2)NC(=O)[C@](C)(CO)NC(=O)[C@H](Cc2c[nH]c3c(Cl)cccc23)NC(=O)[C@H](Cc2ccncc2)NC(=O)[C@H](CC(N)=O)NC(=O)[C@H](CCC(=O)O)N(C)C(=O)[C@H](Cc2c[nH]c3ccccc23)NC(=O)[C@@H]2CSCCN2C(=O)[C@H](Cc2ccncc2)NC1=O` [SEQ ID NO. 246] ([Nle][4Pal][X68]W[NMeE]N[4Pal][Trp(7-Cl)][αMeS][Phe(4-CONH2)]Y[Sar][Trp(βS-Me,7-OMe)]C-NH2; linker N-14 via X7): the concentration for half-maximal inhibition (IC50) came to 1.15 nM.

Compound `CCCC[C@@H]1NC(=O)CSC[C@@H](C(=O)NCC(=O)N[C@@H](CCC(=O)O)C(=O)N[C@@H](CCC(=O)O)C(N)=O)NC(=O)[C@H]([C@@H](C)c2c[nH]c3c(OC)cccc23)NC(=O)CN(C)C(=O)[C@H](Cc2ccc(O)cc2)NC(=O)[C@H](Cc2ccc(C(=O)O)cc2)NC(=O)[C@](C)(CO)NC(=O)[C@H](Cc2c[nH]c3c(Cl)cccc23)NC(=O)[C@H](Cc2ccncc2)NC(=O)[C@H](CC(N)=O)NC(=O)[C@H](CCC(=O)O)N(C)C(=O)[C@H](Cc2c[nH]c3ncccc23)NC(=O)[C@@H]2CNCCN2C(=O)[C@H](Cc2ccncc2)NC1=O` [SEQ ID NO. 255] ({CH2CO}-[Nle][4Pal][Pip(4-aza)][Trp(7-aza)][NMeE]N[4Pal][Trp(7-Cl)][αMeS][Phe(4-COOH)]Y[Sar][Trp(βS-Me,7-OMe)]CGEE-NH2; thioether N-14) registered a half-inhibitory concentration (IC50) of 0.7 nM and a Kd of 1.01 nM.

`CCCC[C@@H]1NC(=O)CSC[C@@H](C(N)=O)NC(=O)[C@H]([C@@H](C)c2c[nH]c3c(OC)cccc23)NC(=O)CN(C)C(=O)[C@H](Cc2ccc(O)cc2)NC(=O)[C@H](Cc2ccc(C(=O)O)cc2)NC(=O)[C@](C)(CO)NC(=O)[C@H](Cc2c[nH]c3c(Cl)cccc23)NC(=O)[C@H](Cc2ccncc2)NC(=O)[C@H](CC(N)=O)NC(=O)[C@H](CCC(=O)O)N(C)C(=O)[C@H](Cc2c[nH]c3ncccc23)NC(=O)[C@@H]2CNCCN2C(=O)[C@H](Cc2c[nH]cn2)NC1=O` [SEQ ID NO. 264] ({CH2CO}-[Nle]H[Pip(4-aza)][Trp(7-aza)][NMeE]N[4Pal][Trp(7-Cl)][αMeS][Phe(4-COOH)]Y[Sar][Trp(βS-Me,7-OMe)]C-NH2; thioether N-14) returned an IC50 of 1.49 nM. This counts as single-digit nanomolar.

In the case of `CCCC[C@@H]1NC(=O)CSC[C@@H](C(N)=O)NC(=O)[C@H]([C@@H](C)c2c[nH]c3c(OC)cccc23)NC(=O)[C@@H](C)N(C)C(=O)[C@H](Cc2ccc(O)cc2)NC(=O)[C@H](Cc2ccc(C(=O)O)cc2)NC(=O)[C@](C)(CO)NC(=O)[C@H](Cc2c[nH]c3c(Cl)cccc23)NC(=O)[C@H](Cc2ccncc2)NC(=O)[C@H](CC(N)=O)NC(=O)[C@H]2CCCN2C(=O)[C@H](Cc2c[nH]c3ccccc23)NC(=O)[C@@H]2CNCCN2C(=O)[C@H](Cc2ccncc2)NC1=O` [SEQ ID NO. 276] ({CH2CO}-[Nle][4Pal][Pip(4-aza)]W[dP]N[4Pal][Trp(7-Cl)][αMeS][Phe(4-COOH)]Y[dNMeA][Trp(βS-Me,7-OMe)]C-NH2; thioether N-14), the IC50 was determined as 2.41 nM. This IC50 is about 1.6-fold higher than that of the compound before.

On to `CCCCC[C@@H]1NC(=O)[C@@H]2CC[C@@H](C2)NC(=O)[C@H]([C@@H](C)c2c[nH]c3c(OC)cccc23)NC(=O)CN(C)C(=O)[C@H](Cc2ccc(C(N)=O)cc2)NC(=O)[C@H](Cc2ccc(C(N)=O)cc2)NC(=O)[C@](C)(CO)NC(=O)[C@H](Cc2c[nH]c3c(C#N)cccc23)NC(=O)[C@H](Cc2ccc(C(=O)O)cc2)NC(=O)[C@H](CC(N)=O)NC(=O)[C@H]2C[C@H](O)CN2C(=O)[C@H](Cc2c[nH]c3ccccc23)NC(=O)[C@H](CCC(=O)O)NC(=O)[C@H]([C@@H](C)c2ccncc2)NC1=O` [SEQ ID NO. 280] (cyclo([Ahp(2)][4Pal(3S-Me)]EW[dHyp]N[Phe(4-COOH)][Trp(7-CN)][αMeS][Phe(4-CONH2)][Phe(4-CONH2)][Sar][Trp(βS-Me,7-OMe)][X1])), for which the equilibrium dissociation constant (Kd) worked out at 0.25 nM.

In general, IC50 refers to the concentration that gives 50% inhibition. The low end stands for greater potency, the high end for weaker potency. Usually Kd stands for a measure of binding affinity in units of concentration. A higher Kd goes with a looser complex.
